Test results: patent US11230717B2, “Plants having increased tolerance to herbicides” (BASF SE, priority 2013, dated 2022)

Assays:
Arabidopsis HPPD = biological target: T1, Arabidopsis HPPD (Arabidopsis thaliana, UniProt P93836); assay: HPPD activity assay (homogentisic acid by HPLC), in vitro characterization; type: biochemical; conditions: for Normalized tolerance index (TI): Arabidopsis HPPD Wildtype (SEQ ID: 53), reference
T1 construct: His6 (N); made in house; host or cells: E. coli BL21 (DE3)
T1 sequence (P93836 1-445): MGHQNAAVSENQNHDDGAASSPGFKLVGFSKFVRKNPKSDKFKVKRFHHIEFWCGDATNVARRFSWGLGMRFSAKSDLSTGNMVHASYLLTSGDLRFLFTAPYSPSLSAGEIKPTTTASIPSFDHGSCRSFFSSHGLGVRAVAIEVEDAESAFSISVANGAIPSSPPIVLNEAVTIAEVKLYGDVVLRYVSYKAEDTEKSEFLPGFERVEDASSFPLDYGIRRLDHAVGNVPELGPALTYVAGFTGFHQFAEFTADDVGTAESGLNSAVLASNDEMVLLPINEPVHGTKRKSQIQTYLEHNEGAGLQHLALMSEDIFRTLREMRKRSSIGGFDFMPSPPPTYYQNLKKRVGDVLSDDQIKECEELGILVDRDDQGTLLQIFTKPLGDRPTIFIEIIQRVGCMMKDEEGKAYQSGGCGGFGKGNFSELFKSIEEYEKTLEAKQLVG
Description: (§1) HPPD produces homogentisic acid and CO2 from 4-hydroxyphenylpyruvate (4-HPP) and O2. The activity assay for HPPD is based on the analysis of homogentisic acid by reversed phase HPLC.
(§2) The assay mixture can contain 150 mM potassium phosphate buffer pH 7.0, 50 mM L-ascorbic acid, 100 μM Catalase (Sigma-Aldrich), 1 μM FeSO4 and 0.2 units of purified HPPD enzyme in a total volume of 505 μl. 1 unit is defined as the amount of enzyme that is required to produce 1 nmol of HGA per minute at 20° C.
(§3) After a preincubation of 30 min the reaction is started by adding 4-HPP to a final concentration of 0.05 mM. The reaction is allowed to proceed for 45 min at room temperature. The reaction is stopped by the addition of 50 μl of 4.5 M phosphoric acid. The sample is filtered using a […] pore size PVDF filtration device.
(§4) 5 μl of the cleared sample is analyzed on an UPLC HSS T3 column (particle size 1.8 μm, dimensions 2,1×50 mm; Waters) by isocratic elution using 90% 20 mM NaH2PO4 pH 2.2, 10% methanol (v/v).
(§5) HGA is detected electrochemically at 750 mV (mode: DC; polarity: positive) and quantified by integrating peak areas (Empower software; Waters).
(§6) Inhibitors are dissolved in DMSO (dimethylsulfoxide) to a concentration of 0.5 mM. From this stock solution serial five-fold dilutions are prepared in DMSO, which are used in the assay. The respective inhibitor solution accounts for 1% of the assay volume. […] Activities are normalized by setting the uninhibited enzyme activity to 100%. IC50 values are calculated using non-linear regression.
(§7) Using methods which are described in the above examples or well known in the art, purified, recombinant wildtype HPPD enzymes are characterized with respect to their kinetic properties and sensitivity towards HPPD inhibiting herbicides. Apparent michaelis constants (Km) and maximal reaction velocities (Vmax) are calculated by non-linear regression with the software GraphPad Prism 5 (GraphPad Software, La Jolla, USA) using a substrate inhibition model. […] Weighted means (by standard error) of Km and IC50 values are calculated from at least three independent experiments. […] To assess the potential performance of a herbicide tolerance trait a tolerance index (TI) is calculated using the following formula: […]

Avena HPPD = assay: HPPD activity assay, in vitro characterization; type: biochemical, Avena sativa; conditions: normalized to Hordeum SEQ ID NO:2
Description: as §1, §2, §3, §4, §5
(§8) Inhibitors are dissolved in DMSO (dimethylsulfoxide) to a concentration of 0.5 mM. From this stock solution serial five-fold dilutions are prepared in DMSO, which are used in the assay. […] IC50 values are calculated using non-linear regression. […]

[1] = biological target: T2, Hordeum HPPD (SEQ ID NO:2) (Hordeum vulgare, UniProt O48604, A164G/R146V/R147D/R148G); assay: HPPD activity assay, in vitro characterization; type: biochemical
T2 construct: subcloned into a modified pET24D (Novagen) expression vector resulting in N-terminally His-tagged expression constructs; His (N); made in house; host or cells: E. coli BL21 (DE3)
T2 sequence (O48604 whole entry R146V/R147D/R148G/A164G): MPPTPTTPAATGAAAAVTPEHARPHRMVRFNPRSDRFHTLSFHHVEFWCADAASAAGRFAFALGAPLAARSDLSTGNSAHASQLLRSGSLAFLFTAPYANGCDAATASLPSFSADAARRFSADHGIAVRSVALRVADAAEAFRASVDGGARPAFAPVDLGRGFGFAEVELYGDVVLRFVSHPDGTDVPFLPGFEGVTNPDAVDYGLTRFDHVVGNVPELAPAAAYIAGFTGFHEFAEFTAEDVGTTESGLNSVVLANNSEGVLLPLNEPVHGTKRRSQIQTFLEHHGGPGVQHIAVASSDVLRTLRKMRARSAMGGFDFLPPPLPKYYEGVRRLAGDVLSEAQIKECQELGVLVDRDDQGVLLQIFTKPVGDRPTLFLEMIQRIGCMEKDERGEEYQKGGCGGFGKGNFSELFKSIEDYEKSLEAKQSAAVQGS
Description: as §1, §2, §3, §4, §5, §6, §7

Kordia HPPD = assay: HPPD activity assay, in vitro characterization; type: biochemical; conditions: normalized to Hordeum SEQ ID NO:2
Description: as §1, §2, §3, §4, §5
(§9) Inhibitors are dissolved in DMSO (dimethylsulfoxide) to a concentration of 0.5 mM. From this stock solution serial five-fold dilutions are prepared in DMSO, which are used in the assay. The respective inhibitor solution accounts for 1% of the assay volume. Thus, final inhibitor concentrations range from […], respectively. Activities are normalized by setting the uninhibited enzyme activity to 100%. IC50 values are calculated using non-linear regression.
(§10) Using methods which are described in the above examples or well known in the art, purified, recombinant wildtype HPPD enzymes are characterized with respect to their kinetic properties and sensitivity towards HPPD inhibiting herbicides. Apparent michaelis constants (Km) and maximal reaction velocities (Vmax) are calculated by non-linear regression with the software GraphPad Prism 5 (GraphPad Software, La Jolla, USA) using a substrate inhibition model. Apparent kcat values are calculated from Vmax assuming 100% purity of the enzyme preparation. Weighted means (by standard error) of Km and IC50 values are calculated from at least three independent experiments. The Cheng-Prusoff equation for competitive inhibition (Cheng, Y. C.; Prusoff, W. H. Biochem Pharmacol 1973, 22, 3099-3108) is used to calculate dissociation constants (Ki). • Field performance of the HPPD enzyme, which is used as a herbicide tolerance trait, may depend not only on its lack of sensitivity towards HPPD inhibiting herbicides but also on its activity. To assess the potential performance of a herbicide tolerance trait a tolerance index (TI) is calculated using the following formula: […]
(§11) The reference SEQ ID NO:2 was included as a comparative control in a representative number of experiments and the values given in Table 12 are the average values from a number of experiments. The TI values given for various HPPD enzymes from different organisms are normalized to the value of the reference SEQ ID NO:2.

[2] = system: Zea mays HPPD mutant Seq ID 67; assay: HPPD activity assay, in vitro characterization; type: biochemical; conditions: normalized to Hordeum SEQ ID NO:2
Description: as §1, §2, §3, §4, §5, §9, §10, §11

Rhodococcus HPPD1 = assay: HPPD activity assay, in vitro characterization; type: biochemical; conditions: normalized to Hordeum SEQ ID NO:2
Description: as §1, §2, §3, §4, §5, §9, §10, §11

Lolium HPPD = assay: HPPD activity assay, in vitro characterization; type: biochemical; conditions: normalized to Hordeum SEQ ID NO:2
Description: as §1, §2, §3, §4, §5, §9, §10, §11

[3] = system: Zea mays HPPD mutant Seq ID 69; assay: HPPD activity assay, in vitro characterization; type: biochemical; conditions: normalized to Hordeum SEQ ID NO:2
Description: as §1, §2, §3, §4, §5, §9, §10, §11

Rhodococcus HPPD2 = assay: HPPD activity assay, in vitro characterization; type: biochemical; conditions: normalized to Hordeum SEQ ID NO:2
Description: as §1, §2, §3, §4, §5, §9, §10, §11

Picrophilus HPPD = assay: HPPD activity assay, in vitro characterization; type: biochemical, Picrophilus torridus; conditions: normalized to Hordeum SEQ ID NO:2
Description: as §1, §2, §3, §4, §5, §8

[4] = Hordeum HPPD Wild-type (SEQ ID NO: 2), reference of Table 16
[5] = Hordeum HPPD, reference, normalized to SEQ ID NO:2

| SMILES | Ki (Arabidopsis HPPD) [nM] | Normalized tolerance index (TI) (Arabidopsis HPPD) | TI (tolerance index) (Arabidopsis HPPD; Arabidopsis HPPD, not normalized) | Normalized tolerance index (TI) (Avena HPPD) | Ki [1] [nM] | Normalized tolerance index (TI) [1, 4] | Normalized tolerance index (TI) [1, 5] | TI (tolerance index) ([1]; Hordeum HPPD, not normalized) | Normalized tolerance index (TI) (Kordia HPPD) | Normalized tolerance index (TI) [2] | Normalized tolerance index (TI) (Rhodococcus HPPD1) | Normalized tolerance index (TI) (Lolium HPPD) | Normalized tolerance index (TI) [3] | Normalized tolerance index (TI) (Rhodococcus HPPD2) | Normalized tolerance index (TI) (Picrophilus HPPD) |
| --- | --- | --- | --- | --- | --- | --- | --- | --- | --- | --- | --- | --- | --- | --- | --- |
| Cn1nnnc1NC(=O)c1c(F)cc(Cl)c(S(C)(=O)=O)c1Cl [Inhibitor 1, 2,4-dichloro-6-fluoro-3-methylsulfonyl-N-(1-methyltetrazol-5-yl)benzamide] | 15 | 1 | 15E−3 | 2.8 | 3.7 | 1 | 1 | 1.6E−3 | 1.2 | 5 | 2.8 | 4.2 | 1.4 | 2.8 | 2.1 |
| CSc1c(Cl)cc(F)c(C(=O)Nc2ncnn2C)c1Cl [Inhibitor 3, 2,4-dichloro-6-fluoro-3-methylsulfanyl-N-(2-methyl-1,2,4-triazol-3-yl)benzamide] |  | 1 |  | 2.8 |  | 1 | 1 |  | 3.1 | 3.8 | 0.4 | 1.7 | 0.7 | 12.5 | 0.7 |
